Measured values: patent US20030044875A1, “Substrate for PP2C” (Schering AG, priority 2001, published 2003)
“Also recorded” adds a separate entry of the source.

Key:
PP2C = conditions: cited from earlier work
PP2Cβ = molecular target: T1, PP2Cβ (Bos taurus, UniProt O62830); assay: Dephosphorylation of phospho-BAD by PP2Cβ, Mg2+-dependence; format: biochemical, bovine
T1 construct: inferred from the Ni-NTA purification; made in house; host or cells: E. coli
T1 sequence (O62830 1-484): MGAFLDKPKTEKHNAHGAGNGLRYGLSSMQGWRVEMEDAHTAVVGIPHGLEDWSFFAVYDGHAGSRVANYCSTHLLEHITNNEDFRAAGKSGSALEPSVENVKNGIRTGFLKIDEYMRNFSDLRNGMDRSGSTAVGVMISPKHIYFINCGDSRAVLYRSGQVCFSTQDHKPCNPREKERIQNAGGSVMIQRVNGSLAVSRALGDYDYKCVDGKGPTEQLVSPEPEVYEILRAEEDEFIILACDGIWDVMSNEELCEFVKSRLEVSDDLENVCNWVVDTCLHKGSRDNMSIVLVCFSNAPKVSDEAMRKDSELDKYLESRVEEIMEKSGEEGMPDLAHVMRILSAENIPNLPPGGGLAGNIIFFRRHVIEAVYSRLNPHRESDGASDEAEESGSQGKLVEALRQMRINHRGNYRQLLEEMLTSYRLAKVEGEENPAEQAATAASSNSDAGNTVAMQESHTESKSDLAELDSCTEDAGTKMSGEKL
Description: Dephosphorylation of phospho-BAD by PP2C is assayed in vitro using recombinant BAD (Lizcano, J. M., Morrice, N. and Cohen, P. (2000) Regulation of Bad by cAMP-dependent protein kinase is mediated via phosphorylation of a novel site, Ser^155. Biochem. J. Vol: 349, 547-557) kindly provided by Sir Philip Cohen, Dundee, UK. cDNA encoding PP2Cβ from bovine brain was expressed in E. Coli and purified using Ni-NTA-Sepharose. (J. Neurosci. Res. 51, 328-338 (1998) Protein phosphatase type-2C isozymes present in vertebrate retinae: purification, characterization, and localization in photoreceptors.)
Incubations were carried out for 30 min at 37° C. The reaction mixture (12 μl) contained 12 μg BAD (GST-fusion protein) (Lizcano et al. (2000) Biochem. J. 349, 547-557), 0.55 μg PKA (Sigma), 1 μM ATP, 15 μCi [γ-^32P]ATP, 5 mM MgCl2 and 25 mM Tris/HCl pH 7.5. After incubation at 37° C. for 30 min, hot and cold ATP were removed by centrisep centrifugation columns. […]
Dephosphorylation of [^32P]BAD depends on the time of incubating PP2Cβ together with the substrate phospho-BAD which is cleaved to give phosphate and BAD. The concentration of [^32P]BAD is measured in this assay, therefore intensive spots on the X-ray sensitive film represent high concentrations of [^32P]BAD, in other words low activity of the enzyme PP2Cβ.

Row | SMILES | Sensitivity of PP2C activity to inhibitor (PP2C) | Effect of Mg2+ ions on enzymatic activity of PP2C (dephosphorylation of BAD) (PP2Cβ)
1 | C=C1[C@@H](O)[C@@H]2O[C@]3(CC[C@H](/C=C/[C@@H](C)[C@@H]4CC(C)=C[C@@]5(O[C@H](C[C@@](C)(O)C(=O)O)CC[C@H]5O)O4)O3)CC[C@H]2O[C@@H]1[C@@H](O)C[C@H](C)[C@H]1O[C@@]2(CCCCO2)CC[C@H]1C [okadaic acid] | not sensitive | –
2 | [Mg+2] [Mg^2+] | – | requires the presence of Mg^2+-ions; also recorded: increases the enzymatic activity
